From BigSolDB 2.1

O=C(O[C@@H]1Cc2c(O)cc(O)cc2O[C@@H]1c1cc(O)c(O)c(O)c1)c1cc(O)c(O)c(O)c1
solubility (mole fraction)
Settings | 278.15 K | 288.15 K | 298.15 K | 308.15 K | 318.15 K
in 2-butoxyethanol | 0.00142 | 0.00195 | 0.00268 | 0.00384 | 0.00559
in 2-ethoxyethanol | 0.00904 | 0.0151 | 0.0272 | 0.0436 | 0.0701
in 2-methoxyethanol | 0.0158 | 0.0254 | 0.0365 | 0.0558 | 0.0815
in 2-propoxyethanol | 0.00275 | 0.00352 | 0.00456 | 0.0059 | 0.00809
in ethanol | 5.41e-05 | 9.24e-05 | 0.000175 | 0.000387 | 0.000714
in isopropanol | 6e-06 | 1.67e-05 | 5.53e-05 | 0.000194 | 0.000481
in methanol | – | 1.65e-05 | 5.8e-05 | 0.000184 | 0.000612
in n-butanol | – | 1.95e-05 | 5.41e-05 | 0.000136 | 0.000349
in n-hexanol | 6.8e-07 | 3.87e-06 | 1.79e-05 | 5.35e-05 | 0.000138
in n-pentanol | 9.9e-07 | 5.7e-06 | 3.01e-05 | 8.6e-05 | 0.000187
in n-propanol | 1.22e-05 | 3.79e-05 | 9.06e-05 | 0.000195 | 0.000656
in sec-butanol | 5.04e-06 | 2.12e-05 | 4.97e-05 | 0.00014 | 0.000636
